Paper PMC5767004, “Inhibitors of the integrase–transportin-SR2 interaction block HIV nuclear import” (Retrovirology, 2018)
Entries after “also recorded” stand apart in the source; their conditions may differ.

Columns and labels:
[1] = molecular target: T1, HIV-1 IN–TRN-SR2 interaction (UniProt P12497+Q9Y5L0); assay: HIV-1 IN–TRN-SR2 AlphaScreen interaction assay; format: binding; conditions: evaluation as positive control, Fig. 2b
T1 construct: N-terminally His6-tagged and untagged IN; made in house; host or cells: E. coli BL21-CodonPlus2 (DE3)
T1 sequence (Q9Y5L0 whole entry, other chains not shown): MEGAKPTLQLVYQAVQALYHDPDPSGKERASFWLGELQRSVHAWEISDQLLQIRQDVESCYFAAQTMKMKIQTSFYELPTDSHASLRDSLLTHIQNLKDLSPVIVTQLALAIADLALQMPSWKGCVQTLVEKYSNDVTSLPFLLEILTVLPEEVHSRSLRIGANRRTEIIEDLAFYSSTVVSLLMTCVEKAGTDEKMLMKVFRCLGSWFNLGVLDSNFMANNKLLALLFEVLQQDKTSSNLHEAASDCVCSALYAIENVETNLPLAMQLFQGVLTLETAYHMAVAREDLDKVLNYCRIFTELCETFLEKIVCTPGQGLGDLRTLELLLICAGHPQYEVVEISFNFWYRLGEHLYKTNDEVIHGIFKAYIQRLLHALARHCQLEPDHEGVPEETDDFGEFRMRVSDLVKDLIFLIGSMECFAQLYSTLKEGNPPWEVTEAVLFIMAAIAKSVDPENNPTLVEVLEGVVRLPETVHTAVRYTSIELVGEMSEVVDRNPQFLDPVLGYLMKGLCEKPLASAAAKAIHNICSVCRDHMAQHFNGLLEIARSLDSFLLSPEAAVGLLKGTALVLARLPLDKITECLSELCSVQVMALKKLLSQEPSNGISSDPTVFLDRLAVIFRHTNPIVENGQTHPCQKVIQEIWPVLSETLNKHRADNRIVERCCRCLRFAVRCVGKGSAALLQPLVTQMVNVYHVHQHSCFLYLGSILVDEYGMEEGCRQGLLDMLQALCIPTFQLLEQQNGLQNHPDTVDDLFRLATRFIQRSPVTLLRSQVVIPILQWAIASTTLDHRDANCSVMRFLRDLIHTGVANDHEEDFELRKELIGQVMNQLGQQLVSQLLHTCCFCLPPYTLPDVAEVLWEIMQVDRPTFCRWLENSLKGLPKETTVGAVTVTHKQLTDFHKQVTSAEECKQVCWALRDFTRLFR
Method: Compound stocks were dissolved at approximately 5 mM in dimethylsulfoxide (DMSO) in 96-well plates. Stocks were first diluted to 125 µM in assay buffer (150 mM NaCl, 25 mM Tris–HCl pH 7.4, 1 mM MgCl2, 0.1% (v/v) Tween-20 and 0.1% (w/v) bovine serum albumin (BSA)) supplemented with 2.5% (v/v) DMSO before 10 µl was transferred to a dry 384-well PS 384-OptiPlate (Perkin Elmer) on a Freedom EVO200 liquid handling robot (Tecan). Untagged TRN-SR2 at 2.5 µM and assay buffer containing 5% DMSO were transferred from a separate 96-well plate to the assay plates and represented the positive and negative controls, respectively. Next, 5 µl each of 5× working dilutions of GST-TRN-SR2 and His6-IN were added using an XRD-384 automated reagent dispenser (FluidX). The plate was left to incubate for 1 h at 7 °C before 5 µl of a glutathione donor and Ni^2+-chelate acceptor AlphaScreen bead mixture (Perkin Elmer) was added. […]
Development of robust high-throughput assays requires optimal buffer conditions in which both proteins and the detection method are stable and reproducible. […] This experience allowed us to readily adapt an assay buffer to meet the requirements for a high-throughput screen (HTS) for inhibitors of the interaction. […]

HIV = conditions: cited from earlier work
[2] = tested on: HIV PIC nuclear import (IN-eGFP labeled virus); assay: PIC nuclear import assay in HeLaP4 cells; format: cell-based, HIV-1; conditions: 100 µM hit compound, 5 h after infection, experiment compared to DMSO

**Q.** With “Untagged TRN-SR2: untagged recombinant Transportin-SR2 protein, positive control of the AlphaScreen” as the molecule, how does the “Inhibition of the IN–TRN-SR2 AlphaScreen signal by untagged protein (titration, in words)” value [1] read?
**A.** could block the interaction completely; also recorded: did inhibit the signal

**Q.** What does the source list for Cc1[nH]c2ccccc2c1CC(=O)N[C@@H](Cc1ccccc1)C(=O)N(C)c1ccccc1 [PF74, PF-3450074]?
**A.** Inhibition of reverse transcription (in words) (HIV; higher concentrations (10 µM)): inhibits reverse transcription at higher concentrations; Inhibition of HIV nuclear import (in words) (HIV; low concentrations (2 µM)): known to inhibit nuclear import at low concentrations

**Q.** With Cc1nnc(C(=O)NC(C)(C)c2nc(C(=O)NCc3ccc(F)cc3)c(O)c(=O)n2C)o1 [Ral, Raltegravir] as the molecule, how does the “% nuclear PICs (mean)” value [2] read?
**A.** 4.5%
